Measured values published in PubChem BioAssay (NCI).
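GI50 is the concentration that inhibits growth by half. TGI: total growth inhibition.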

What was measured:
Test in all cases: NCI-60 cell line screen, 384-well format
786-0 renal = system: 786-0 renal
A498 renal = system: A498 renal
A549 NSCLC = system: A549 NSCLC
ACHN renal = system: ACHN renal
BT-549 breast = system: BT-549 breast
CAKI-1 renal = system: CAKI-1 renal
CCRF-CEM leukemia = system: CCRF-CEM leukemia
COLO 205 colon = system: COLO 205 colon
DU-145 prostate = system: DU-145 prostate
EKVX NSCLC = system: EKVX NSCLC
HCC-2998 colon = system: HCC-2998 colon
HCT-116 colon = system: HCT-116 colon
HCT-15 colon = system: HCT-15 colon
HL-60(TB) leukemia = system: HL-60(TB) leukemia
HOP-62 NSCLC = system: HOP-62 NSCLC
HOP-92 NSCLC = system: HOP-92 NSCLC
HS 578T breast = system: HS 578T breast
HT29 colon = system: HT29 colon
IGROV1 ovarian = system: IGROV1 ovarian
KM12 colon = system: KM12 colon
LOX IMVI melanoma = system: LOX IMVI melanoma
M14 melanoma = system: M14 melanoma
MALME-3M melanoma = system: MALME-3M melanoma
MCF7 breast = system: MCF7 breast
MDA-MB-231 breast = system: MDA-MB-231 breast
MDA-MB-435 melanoma = system: MDA-MB-435 melanoma
MDA-MB-468 breast = system: MDA-MB-468 breast
MOLT-4 leukemia = system: MOLT-4 leukemia
NCI-H226 lung = system: NCI-H226 lung
NCI-H23 lung = system: NCI-H23 lung
NCI-H322M lung = system: NCI-H322M lung
NCI-H460 NSCLC = system: NCI-H460 NSCLC
NCI-H522 lung = system: NCI-H522 lung
NCI/ADR-RES ovarian = system: NCI/ADR-RES ovarian
OVCAR-3 ovarian = system: OVCAR-3 ovarian
OVCAR-4 ovarian = system: OVCAR-4 ovarian
OVCAR-5 ovarian = system: OVCAR-5 ovarian
OVCAR-8 ovarian = system: OVCAR-8 ovarian
PC-3 prostate = system: PC-3 prostate
RPMI-8226 leukemia = system: RPMI-8226 leukemia
RXF 393 renal = system: RXF 393 renal
SF-268 CNS = system: SF-268 CNS
SF-295 CNS = system: SF-295 CNS
SF-539 CNS = system: SF-539 CNS
SK-MEL-28 melanoma = system: SK-MEL-28 melanoma
SK-MEL-5 melanoma = system: SK-MEL-5 melanoma
SK-OV-3 ovarian = system: SK-OV-3 ovarian
SN12C renal = system: SN12C renal
SNB-19 CNS = system: SNB-19 CNS
SNB-75 CNS = system: SNB-75 CNS
SR leukemia = system: SR leukemia
SW-620 colon = system: SW-620 colon
T-47D breast = system: T-47D breast
TK-10 renal = system: TK-10 renal
U251 glioblastoma = system: U251 glioblastoma
UACC-257 melanoma = system: UACC-257 melanoma
UACC-62 melanoma = system: UACC-62 melanoma
UO-31 renal = system: UO-31 renal

`CN1CC[C@@H](NC(=O)Nc2ccc(C#N)cc2)C[C@@H]1c1nc2ccccc2[nH]1` gave a GI50 (786-0 renal) of 40.4 µM, a TGI (786-0 renal) greater than 100 µM and a GI50 (A498 renal) greater than 85.2 µM. The TGI (A498 renal) was greater than 100 µM, the GI50 (A549 NSCLC) was greater than 87.9 µM and the TGI (A549 NSCLC) was greater than 100 µM. The GI50 (ACHN renal) was greater than 84.7 µM, the TGI (ACHN renal) was greater than 100 µM and the GI50 (BT-549 breast) was greater than 49.4 µM. It also gave a TGI (BT-549 breast) greater than 93.7 µM, a GI50 (CAKI-1 renal) greater than 100 µM and a TGI (CAKI-1 renal) greater than 100 µM. It also gave a GI50 (CCRF-CEM leukemia) of 74.7 µM, a TGI (CCRF-CEM leukemia) greater than 100 µM and a GI50 (COLO 205 colon) greater than 85.1 µM. It also gave a TGI (COLO 205 colon) greater than 100 µM, a GI50 (DU-145 prostate) of 73.8 µM and a TGI (DU-145 prostate) greater than 100 µM. For the same molecule, the GI50 (EKVX NSCLC) was greater than 93.7 µM, the TGI (EKVX NSCLC) was greater than 100 µM and the GI50 (HCC-2998 colon) was 47.7 µM. It also gave a TGI (HCC-2998 colon) greater than 100 µM, a GI50 (HCT-116 colon) of 61.2 µM and a TGI (HCT-116 colon) greater than 100 µM. It also gave a GI50 (HCT-15 colon) greater than 87.8 µM, a TGI (HCT-15 colon) greater than 100 µM and a GI50 (HL-60(TB) leukemia) greater than 87.7 µM. The TGI (HL-60(TB) leukemia) was greater than 100 µM, the GI50 (HOP-62 NSCLC) was greater than 100 µM and the TGI (HOP-62 NSCLC) was greater than 100 µM. For the same molecule, the GI50 (HOP-92 NSCLC) was 39.5 µM, the TGI (HOP-92 NSCLC) was 97.4 µM and the GI50 (HS 578T breast) was greater than 60 µM. The TGI (HS 578T breast) was greater than 100 µM, the GI50 (HT29 colon) was 69.3 µM and the TGI (HT29 colon) was greater than 100 µM. The GI50 (IGROV1 ovarian) was 75.1 µM, the TGI (IGROV1 ovarian) was greater than 100 µM and the GI50 (KM12 colon) was greater than 100 µM. For the same molecule, the TGI (KM12 colon) was greater than 100 µM, the GI50 (LOX IMVI melanoma) was greater than 100 µM and the TGI (LOX IMVI melanoma) was greater than 100 µM. For the same molecule, the GI50 (M14 melanoma) was greater than 100 µM, the TGI (M14 melanoma) was greater than 100 µM and the GI50 (MALME-3M melanoma) was 24.4 µM. It also gave a TGI (MALME-3M melanoma) greater than 61.4 µM, a GI50 (MCF7 breast) greater than 72.1 µM and a TGI (MCF7 breast) greater than 100 µM. The GI50 (MDA-MB-231 breast) was 61.4 µM, the TGI (MDA-MB-231 breast) was greater than 100 µM and the GI50 (MDA-MB-435 melanoma) was greater than 100 µM. It also gave a TGI (MDA-MB-435 melanoma) greater than 100 µM, a GI50 (MDA-MB-468 breast) of 32.9 µM and a TGI (MDA-MB-468 breast) greater than 95.9 µM. For the same molecule, the GI50 (MOLT-4 leukemia) was 18.2 µM, the TGI (MOLT-4 leukemia) was 36.4 µM and the GI50 (NCI-H226 lung) was greater than 59.6 µM. The TGI (NCI-H226 lung) was greater than 100 µM, the GI50 (NCI-H23 lung) was greater than 75.2 µM and the TGI (NCI-H23 lung) was greater than 100 µM. The GI50 (NCI-H322M lung) was greater than 100 µM, the TGI (NCI-H322M lung) was greater than 100 µM and the GI50 (NCI-H460 NSCLC) was greater than 100 µM. It also gave a TGI (NCI-H460 NSCLC) greater than 100 µM, a GI50 (NCI-H522 lung) greater than 79.8 µM and a TGI (NCI-H522 lung) greater than 100 µM. For the same molecule, the GI50 (NCI/ADR-RES ovarian) was greater than 100 µM, the TGI (NCI/ADR-RES ovarian) was greater than 100 µM and the GI50 (OVCAR-3 ovarian) was greater than 67.4 µM. For the same molecule, the TGI (OVCAR-3 ovarian) was greater than 100 µM, the GI50 (OVCAR-4 ovarian) was 92.4 µM and the TGI (OVCAR-4 ovarian) was greater than 100 µM. For the same molecule, the GI50 (OVCAR-5 ovarian) was greater than 87.8 µM, the TGI (OVCAR-5 ovarian) was greater than 100 µM and the GI50 (OVCAR-8 ovarian) was greater than 100 µM. The TGI (OVCAR-8 ovarian) was greater than 100 µM, the GI50 (PC-3 prostate) was greater than 100 µM and the TGI (PC-3 prostate) was greater than 100 µM. The GI50 (RPMI-8226 leukemia) was 54.2 µM, the TGI (RPMI-8226 leukemia) was greater than 100 µM and the GI50 (RXF 393 renal) was greater than 46.8 µM. The TGI (RXF 393 renal) was greater than 86.7 µM, the GI50 (SF-268 CNS) was greater than 86.7 µM and the TGI (SF-268 CNS) was greater than 100 µM. For the same molecule, the GI50 (SF-295 CNS) was greater than 80.7 µM, the TGI (SF-295 CNS) was greater than 100 µM and the GI50 (SF-539 CNS) was greater than 100 µM. It also gave a TGI (SF-539 CNS) greater than 100 µM, a GI50 (SK-MEL-28 melanoma) greater than 82.8 µM and a TGI (SK-MEL-28 melanoma) greater than 100 µM. It also gave a GI50 (SK-MEL-5 melanoma) of 18.2 µM, a TGI (SK-MEL-5 melanoma) greater than 100 µM and a GI50 (SK-OV-3 ovarian) greater than 100 µM. It also gave a TGI (SK-OV-3 ovarian) greater than 100 µM, a GI50 (SN12C renal) greater than 100 µM and a TGI (SN12C renal) greater than 100 µM. It also gave a GI50 (SNB-19 CNS) greater than 100 µM, a TGI (SNB-19 CNS) greater than 100 µM and a GI50 (SNB-75 CNS) greater than 58.6 µM. For the same molecule, the TGI (SNB-75 CNS) was greater than 95.9 µM, the GI50 (SR leukemia) was 23.4 µM and the TGI (SR leukemia) was 65.2 µM. It also gave a GI50 (SW-620 colon) greater than 100 µM, a TGI (SW-620 colon) greater than 100 µM and a GI50 (T-47D breast) of 37.9 µM. The TGI (T-47D breast) was greater than 100 µM, the GI50 (TK-10 renal) was greater than 100 µM and the TGI (TK-10 renal) was greater than 100 µM. For the same molecule, the GI50 (U251 glioblastoma) was greater than 100 µM, the TGI (U251 glioblastoma) was greater than 100 µM and the GI50 (UACC-257 melanoma) was greater than 89.3 µM. The TGI (UACC-257 melanoma) was greater than 100 µM, the GI50 (UACC-62 melanoma) was greater than 61.8 µM and the TGI (UACC-62 melanoma) was greater than 100 µM. It also gave a GI50 (UO-31 renal) greater than 88.5 µM and a TGI (UO-31 renal) greater than 100 µM.
